In data set [1] the target is T1, aldose reductase (Rattus norvegicus, UniProt P07943).
T1 construct: their crystalline lenses were immediately removed and stored at -80° C; The lenses were homogenized; from tissue; host or cells: crystalline lens of six-week-old male SD rats (homogenate supernatant, dialysed)
In words: Aldose reductase inhibition, IC50 determination (Experiment 2). Format: biochemical, rat (male SD rat crystalline lens). The note with it: calculated from inhibitions at three final concentrations; DL-glycerine aldehyde 10 mM, pH 6.2, 30° C. How it is done:
Six-week-old male SD rats were killed under ether anesthesia and their crystalline lenses were immediately removed and stored at -80° C. […] The supernatant was dialyzed overnight against 0.05M sodium chloride, to produce an aldose reductase solution. All operations were conducted at 4° C. The enzyme solution was stored at -80° C.
(§1) Namely, 0.1 ml of DL-glycerine aldehyde (final concentration: 10 mM) was added to 0.9 ml of 100 mM sodium potassium phosphate buffer (pH 6.2) which contained lithium sulfate (final concentration: 400 mM), reduced nicotinamide adenine dinucleotide phosphate (final concentration: 0.15 mM), the enzyme solution, and the compound to be tested (final concentration: 5×10^-5 M or 10^-6 M), and then the reaction was conducted at 30° C. for 5 min. […] The maximum reducing rate of the absorbance (U) during the reaction was determined. By substracting, from this value, the maximum reducing rate (Uo) at 340 nm of the reaction solution before the addition of the substrate (DL-glycerine aldehyde), the reaction rate (V) (V=U-Uo) was calculated as a true reaction rate in the presence of the compound to be tested.
(§2) The same procedure was repeated except for the absence of the compound to be tested. A true reaction rate (Vo) in case the enzyme was not inhibited was calculated (Vo =U'-Uo '). The inhibitory activity of aldose reductase was determined by the following formula. [formula]
In the same manner as Experiment 1, the inhibitions at final concentrations of 10^-6, 10^-7 and […] for the compound to be tested were calculated.

A short description of data set [2]: Acute toxicity test, oral (Experiment 3). Particulars: mouse, in vivo, suspended in 0.5% sodium carboxymethyl cellulose, male MCH mice, 14 days observation. An excerpt: The compound listed in Table 7 and suspended in 0.5% sodium carboxymethyl cellulose was orally administered to male MCH mice (6 weeks old: 5 animals per test group).
During the test, the mice were able to take food and water freely.

Data set [3] addresses T1, aldose reductase. In words: Aldose Reductase Inhibition Test (Experiment 1). Format: biochemical, rat (male SD rat crystalline lens). The note with it: DL-glycerine aldehyde 10 mM, pH 6.2, 30° C., 5 min; for inhibition at 1 µM: *Concentration of 10^-6 M; for inhibition at 50 µM: final concentration 5×10^-5 M (values without asterisk). As to the method:
Six-week-old male SD rats were killed under ether anesthesia and their crystalline lenses were immediately removed and stored at -80° C. The lenses were homogenized in 3 volumes of 135 mM sodium potassium phosphate buffer (pH: 7.0) and centrifuged at a rate of 30,000 rpm for 30 min. The supernatant was dialyzed overnight against 0.05M sodium chloride, to produce an aldose reductase solution. All operations were conducted at 4° C. The enzyme solution was stored at -80° C.
as §1, with “The activity of aldose reductase was determined according to a slight modification of the method of J. H. Kinoshita et al [J. Biol. Chem., 240, 877 (1965)]. Namely,” for “Namely,”
as §2

Bounds are passed on as bounds.

In the case of `O=C(O)Cn1nnnc1-c1ccccc1` [Compound 3-1, 5-Phenyl-1-tetrazoleacetic acid], the IC50 in data set [1] is 0.032 µM. Moreover, in data set [2], the LD50 at 336 h was over 3000 mg/kg. In data set [3], the inhibition at 1 µM was determined as 97%.
Consider `Cc1ccc(-c2nnnn2CC(=O)O)cc1` [Compound 3-6, 5-(4-Methylphenyl)-1-tetrazoleacetic acid], for which the IC50 in data set [1] is 0.025 µM. In data set [2], the LD50 at 336 h is over 3000 mg/kg. The inhibition at 1 µM in data set [3] was found to be 98%.
Consider `O=C(O)Cn1nnnc1-c1cccc(NC(=O)C(=O)O)c1` [Compound 3-12, 3'-(1-Carboxymethyl-tetrazol-5-yl)oxanilic acid], for which the IC50 in data set [1] is 0.031 µM. Moreover, the LD50 at 336 h in data set [2] is over 3000 mg/kg. In data set [3], at 50 µM the inhibition was 97%.
In turn, `COC(=O)Cn1nnnc1-c1ccc(C)cc1` [Compound 1-7, Methyl 5-(4-methylphenyl)-1-tetrazoleacetate] gave an LD50 at 336 h in data set [2] of over 3000 mg/kg. In data set [3], this compound came in with an inhibition at 50 µM of 59%.
Consider `CC(C)(C)c1ccc(-c2nnnn2CC(=O)O)cc1` [Compound 3-26, 5-(4-t-Butylphenyl)-1-tetrazoleacetic acid], for which the IC50 in data set [1] was 0.027 µM. This compound also gave an inhibition at 1 µM in data set [3] of 94%.
`O=C(O)Cn1nnnc1-c1ccc(F)cc1` [Compound 3-3, 5-(4-Fluorophenyl)-1-tetrazoleacetic acid]: the IC50 in data set [1] is 0.042 µM. In data set [3], this compound registered an inhibition at 1 µM of 94%.
On to `Cc1ccc(-c2nnnn2CC(=O)O)cc1[N+](=O)[O-]` [Compound 3-11, 5-(3-Nitro-4-methylphenyl)-1-tetrazoleacetic acid], for which the half-inhibitory concentration (IC50) in data set [1] is 0.042 µM. Testing at 1 µM in data set [3] gave an inhibition of 92%.

As usually defined, the IC50 is the concentration at which inhibition is half-maximal. A word on the LD50: it is the dose expected to kill half of the subjects tested. Low values mean greater toxicity, high ones lower toxicity. By inhibition is commonly meant how much of the control response was suppressed. The low end stands for a weak effect, the high end for a strong effect.

Source of the values: patent USRE35281E, “Tetrazole derivatives and aldose reductase inhibition therewith” (Wakamoto Pharmaceutical Co., Ltd., priority 1989, dated 1996).
